Molecular target: tau4RD (Homo sapiens, UniProt P10636)
Assay: Unseeded heparin-induced tau4RD aggregation, thioflavin T fluorescence
Assay type: biochemical
Settings: 1:2 protein:compound molar ratio; ThT fluorescence

tau4RD, sequence (P10636 561-685 limits assumed): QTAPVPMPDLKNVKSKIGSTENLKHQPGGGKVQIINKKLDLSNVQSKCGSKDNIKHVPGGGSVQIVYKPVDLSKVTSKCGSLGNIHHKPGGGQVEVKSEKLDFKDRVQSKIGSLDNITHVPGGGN

## O=C1c2ccccc2-n2c1nc1ccccc1c2=O [compound 1, tryptanthrin]
  Inhibition of heparin-induced tau4RD aggregation in initial screen (in words): among the most potent inhibitors

— publication PMC10862865 (bioRxiv, 2024)
